Results: PubChem BioAssay AID1963978 (Molecular Pharmacology Branch, DTP, NCI, 2024)

System: 616215-338-R-J1-PDC spheroids with HUVEC/MSC, viability
Experiment: Anticancer human tumor 616215-338-R-J1-PDC patient-derived colon adenocarcinoma cell line growth inhibition [PI3K]
Conditions: for viability, T/C: stronger effect = lower value
Method in brief: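 Viability of mixed-cell spheroids was determined after exposure to pairwise combinations, one partner being inavolisib, alpelisib, duvelisib or copanlisib. Highest tested concentration matched clinical Cmax where known and 10 microM where not, descending in half-log steps.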

[1] = curve of first compound, second compound 0.0316 µM
[2] = curve of first compound, second compound 0.1 µM
[3] = curve of first compound, second compound 0.316 µM
[4] = curve of first compound, second compound 1 µM
[5] = curve of first compound, second compound 3.16 µM
[6] = curve of first compound, second compound 10 µM
[7] = second compound 0.0316 µM, first compound 0.0316 µM
[8] = second compound 0.0316 µM, first compound 0.1 µM
[9] = second compound 0.0316 µM, first compound 0.316 µM
[10] = second compound 0.0316 µM, first compound 1 µM
[11] = second compound 0.0316 µM, first compound 3.16 µM
[12] = second compound 0.0316 µM, first compound 10 µM
[13] = second compound 0.1 µM, first compound 0.0316 µM
[14] = second compound 0.1 µM, first compound 0.1 µM
[15] = second compound 0.1 µM, first compound 0.316 µM
[16] = second compound 0.1 µM, first compound 1 µM
[17] = second compound 0.1 µM, first compound 3.16 µM
[18] = second compound 0.1 µM, first compound 10 µM
[19] = second compound 0.316 µM, first compound 0.0316 µM
[20] = second compound 0.316 µM, first compound 0.1 µM
[21] = second compound 0.316 µM, first compound 0.316 µM
[22] = second compound 0.316 µM, first compound 1 µM
[23] = second compound 0.316 µM, first compound 3.16 µM
[24] = second compound 0.316 µM, first compound 10 µM
[25] = second compound 1 µM, first compound 0.0316 µM
[26] = second compound 1 µM, first compound 0.1 µM
[27] = second compound 1 µM, first compound 0.316 µM
[28] = second compound 1 µM, first compound 1 µM
[29] = second compound 1 µM, first compound 3.16 µM
[30] = second compound 1 µM, first compound 10 µM
[31] = second compound 3.16 µM, first compound 0.0316 µM
[32] = second compound 3.16 µM, first compound 0.1 µM
[33] = second compound 3.16 µM, first compound 0.316 µM
[34] = second compound 3.16 µM, first compound 1 µM
[35] = second compound 3.16 µM, first compound 3.16 µM
[36] = second compound 3.16 µM, first compound 10 µM
[37] = second compound 10 µM, first compound 0.0316 µM
[38] = second compound 10 µM, first compound 0.1 µM
[39] = second compound 10 µM, first compound 0.316 µM
[40] = second compound 10 µM, first compound 1 µM
[41] = second compound 10 µM, first compound 3.16 µM
[42] = second compound 10 µM, first compound 10 µM
[43] = second compound 0.0316 µM, first compound 0.00316 µM
[44] = second compound 0.0316 µM, first compound 0.01 µM
[45] = second compound 0.1 µM, first compound 0.00316 µM
[46] = second compound 0.1 µM, first compound 0.01 µM
[47] = second compound 0.316 µM, first compound 0.00316 µM
[48] = second compound 0.316 µM, first compound 0.01 µM
[49] = second compound 1 µM, first compound 0.00316 µM
[50] = second compound 1 µM, first compound 0.01 µM
[51] = second compound 3.16 µM, first compound 0.00316 µM
[52] = second compound 3.16 µM, first compound 0.01 µM
[53] = second compound 10 µM, first compound 0.00316 µM
[54] = second compound 10 µM, first compound 0.01 µM
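Also: spheroids exposed to agents for seven days before the viability read.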

CC1(C)CCC(CN2CCN(c3ccc(C(=O)NS(=O)(=O)c4ccc(NCC5CCOCC5)c([N+](=O)[O-])c4)c(Oc4cnc5[nH]ccc5c4)c3)CC2)=C(c2ccc(Cl)cc2)C1 + Cc1nc(NC(=O)N2CCCC2C(N)=O)sc1-c1ccnc(C(C)(C)C(F)(F)F)c1
IC50 [1]: 5.22 µM | IC50 [2]: 5 µM | IC50 [3]: 4.98 µM | IC50 [4]: 5.11 µM | IC50 [5]: 5.37 µM | IC50 [6]: 4.47 µM | viability, T/C [7]: 95.6% | viability, T/C [8]: 98.9% | viability, T/C [9]: 108% | viability, T/C [10]: 102% | viability, T/C [11]: 86.4% | viability, T/C [12]: 2.58% | viability, T/C [13]: 97.4% | viability, T/C [14]: 92.3% | viability, T/C [15]: 95.8% | viability, T/C [16]: 104% | viability, T/C [17]: 81.5% | viability, T/C [18]: 1.97% | viability, T/C [19]: 98.5% | viability, T/C [20]: 97.1% | viability, T/C [21]: 90.5% | viability, T/C [22]: 97.7% | viability, T/C [23]: 81% | viability, T/C [24]: 2.29% | viability, T/C [25]: 103% | viability, T/C [26]: 92.3% | viability, T/C [27]: 102% | viability, T/C [28]: 93% | viability, T/C [29]: 85.3% | viability, T/C [30]: 0.61% | viability, T/C [31]: 95.6% | viability, T/C [32]: 99.4% | viability, T/C [33]: 101% | viability, T/C [34]: 97.9% | viability, T/C [35]: 91.9% | viability, T/C [36]: 0.6% | viability, T/C [37]: 92.8% | viability, T/C [38]: 99.9% | viability, T/C [39]: 94.8% | viability, T/C [40]: 87.1% | viability, T/C [41]: 72.4% | viability, T/C [42]: 0.39%

Cc1nc(NC(=O)N2CCCC2C(N)=O)sc1-c1ccnc(C(C)(C)C(F)(F)F)c1 (stereo not given)
viability, T/C (compound 0.0316 µM): 97.3% [middle of 8 runs] | viability, T/C (compound 0.1 µM): 102% [middle of 8 runs] | viability, T/C (compound 0.316 µM): 106% [middle of 8 runs] | viability, T/C (compound 1 µM): 108% [middle of 8 runs] | viability, T/C (compound 3.16 µM): 100% [middle of 8 runs] | viability, T/C (compound 10 µM): 99.5% [middle of 8 runs] | IC50 (compound alone, run of 05/08/2023): > 10 µM

CCN1CCN(Cc2ccc(Nc3ncc(F)c(-c4cc(F)c5nc(C)n(C(C)C)c5c4)n3)nc2)CC1 + Cc1nc(NC(=O)N2CCCC2C(N)=O)sc1-c1ccnc(C(C)(C)C(F)(F)F)c1
IC50 [1]: > 1 µM | IC50 [2]: > 1 µM | IC50 [3]: > 1 µM | IC50 [4]: > 1 µM | IC50 [5]: > 1 µM | IC50 [6]: > 1 µM | viability, T/C [43]: 94% | viability, T/C [44]: 90.8% | viability, T/C [7]: 98.5% | viability, T/C [8]: 101% | viability, T/C [9]: 110% | viability, T/C [10]: 134% | viability, T/C [45]: 107% | viability, T/C [46]: 120% | viability, T/C [13]: 96.9% | viability, T/C [14]: 105% | viability, T/C [15]: 114% | viability, T/C [16]: 113% | viability, T/C [47]: 113% | viability, T/C [48]: 104% | viability, T/C [19]: 111% | viability, T/C [20]: 115% | viability, T/C [21]: 131% | viability, T/C [22]: 110% | viability, T/C [49]: 92.5% | viability, T/C [50]: 99% | viability, T/C [25]: 101% | viability, T/C [26]: 108% | viability, T/C [27]: 120% | viability, T/C [28]: 83.9% | viability, T/C [51]: 96.7% | viability, T/C [52]: 105% | viability, T/C [31]: 106% | viability, T/C [32]: 103% | viability, T/C [33]: 91.9% | viability, T/C [34]: 84.1% | viability, T/C [53]: 91.3% | viability, T/C [54]: 82.7% | viability, T/C [37]: 92.3% | viability, T/C [38]: 74.6% | viability, T/C [39]: 68.9% | viability, T/C [40]: 52.1%

CC(=O)c1c(C)c2cnc(Nc3ccc(N4CCNCC4)cn3)nc2n(C2CCCC2)c1=O + CC(Nc1ncnc2nc[nH]c12)c1cc2cccc(Cl)c2c(=O)n1-c1ccccc1
IC50 [1]: > 0.1 µM | IC50 [2]: > 0.1 µM | IC50 [3]: > 0.1 µM | IC50 [4]: > 0.1 µM | IC50 [5]: > 0.1 µM | IC50 [6]: > 0.1 µM | viability, T/C (second compound 0.0316 µM, first compound 0.000316 µM): 106% | viability, T/C (second compound 0.0316 µM, first compound 0.001 µM): 104% | viability, T/C [43]: 93.2% | viability, T/C [44]: 93.3% | viability, T/C [7]: 92.5% | viability, T/C [8]: 102% | viability, T/C (second compound 0.1 µM, first compound 0.000316 µM): 98.7% | viability, T/C (second compound 0.1 µM, first compound 0.001 µM): 105% | viability, T/C [45]: 99.6% | viability, T/C [46]: 106% | viability, T/C [13]: 104% | viability, T/C [14]: 118% | viability, T/C (second compound 0.316 µM, first compound 0.000316 µM): 110% | viability, T/C (second compound 0.316 µM, first compound 0.001 µM): 95.2% | viability, T/C [47]: 98.4% | viability, T/C [48]: 92.3% | viability, T/C [19]: 106% | viability, T/C [20]: 114% | viability, T/C (second compound 1 µM, first compound 0.000316 µM): 98.2% | viability, T/C (second compound 1 µM, first compound 0.001 µM): 104% | viability, T/C [49]: 99.5% | viability, T/C [50]: 107% | viability, T/C [25]: 113% | viability, T/C [26]: 110% | viability, T/C (second compound 3.16 µM, first compound 0.000316 µM): 115% | viability, T/C (second compound 3.16 µM, first compound 0.001 µM): 88.1% | viability, T/C [51]: 99.2% | viability, T/C [52]: 112% | viability, T/C [31]: 101% | viability, T/C [32]: 103% | viability, T/C (second compound 10 µM, first compound 0.000316 µM): 97.8% | viability, T/C (second compound 10 µM, first compound 0.001 µM): 94% | viability, T/C [53]: 122% | viability, T/C [54]: 118% | viability, T/C [37]: 104% | viability, T/C [38]: 90.9%

C#Cc1c(F)ccc2cc(O)cc(-c3ncc4c(N5CC6CCC(C5)N6)nc(OCC56CCCN5CC(F)C6)nc4c3F)c12 (stereo not given) + CC(Nc1ncnc2nc[nH]c12)c1cc2cccc(Cl)c2c(=O)n1-c1ccccc1
IC50 [1]: > 10 µM | IC50 [2]: > 10 µM | IC50 [3]: > 10 µM | IC50 [4]: > 10 µM | IC50 [5]: > 10 µM | IC50 [6]: > 10 µM | viability, T/C [7]: 99.5% | viability, T/C [8]: 93.7% | viability, T/C [9]: 102% | viability, T/C [10]: 109% | viability, T/C [11]: 109% | viability, T/C [12]: 73.3% | viability, T/C [13]: 102% | viability, T/C [14]: 110% | viability, T/C [15]: 98.5% | viability, T/C [16]: 99.8% | viability, T/C [17]: 102% | viability, T/C [18]: 81.3% | viability, T/C [19]: 111% | viability, T/C [20]: 97.7% | viability, T/C [21]: 98.2% | viability, T/C [22]: 99.8% | viability, T/C [23]: 104% | viability, T/C [24]: 68.2% | viability, T/C [25]: 100% | viability, T/C [26]: 110% | viability, T/C [27]: 108% | viability, T/C [28]: 104% | viability, T/C [29]: 122% | viability, T/C [30]: 74.7% | viability, T/C [31]: 111% | viability, T/C [32]: 97.7% | viability, T/C [33]: 103% | viability, T/C [34]: 107% | viability, T/C [35]: 98.4% | viability, T/C [36]: 58.4% | viability, T/C [37]: 104% | viability, T/C [38]: 108% | viability, T/C [39]: 109% | viability, T/C [40]: 105% | viability, T/C [41]: 95% | viability, T/C [42]: 62.5%
